Measurements as given in paper PMC12081876, “Identification of PTGR2 inhibitors as a new therapeutic strategy for diabetes and obesity” (EMBO Molecular Medicine, 2025).
Values joined by “and” are separate entries in the source; they are usually repeats but may differ in a detail not shown here. Equal entries are not always repeated.

Tests used:
Assay type in all cases: cell-based, mouse
[1] = system: PPARγ-null 3T3-L1 clones rescued with mutant mPPARγ (C313A); assay: Insulin-stimulated glucose uptake in PPARγ-null 3T3-L1 clones rescued with mutant mPPARγ (C313A); details: for insulin-stimulated glucose uptake, Fig 1P right panel replicates: rescued with mPPARγ C313A
Procedure: (§1) Gene editing was performed in 3T3-L1 preadipocytes using the clustered regularly interspaced short palindromic repeats (CRISPR)/Cas9 system. Two single-guide RNAs (sgRNA) (Appendix Table S5) targeting exon 6 of mouse Pparγ were designed using a web-based design tool (http://crispr.mit.edu/). These oligonucleotides were cloned into the pSurrogate reporter and pAll-Cas9.Ppuro vector obtained from Academia Sinica, Taiwan. The pSurrogate reporter contains an EGFP and an out-of-frame mCherry downstream of the sgRNA; the pAll-Cas9.Ppuro vector expresses Cas9 nuclease and sgRNA. Once a double-strand breaking at the target site in pSurrogate reporter plasmid was created by Cas9, insertions and deletions (indels) could be introduced at the cleaved site. The indels cause frameshifts and result in the expression of the mCherry gene. 3T3-L1 preadipocytes were co-transfected with pSurrogate reporter and pAll-Cas9.Ppuro vectors at 80-90% confluency using PolyJet™ transfection reagent (cat. no. SL100688, SignaGen Laboratories, USA). Two days after transfection, EGFP/mCherry double-positive cells were enriched by fluorescent-activated cell sorting. Single cells were isolated and expanded. The genomic DNA was amplified by PCR and sequenced to confirm the knockout cell lines. The primer sequences are shown in Appendix Table S5.
(§2) The mPPARγ C313A DNA sequence was amplified from pCMV6-Pparg C313A and subcloned into the pLVX-IRES-Neo vector with XhoI/NotI restriction sites. The lentiviral expression plasmids, pMD.G, and pCMVΔR8.91 (RNAi Core, Academia Sinica, Taiwan), were co-transfected into HEK293T cells. […] HSP70 was probed with an anti-HSP70 antibody (cat. no. ab45133, Abcam) as a loading control.
(§3) Differentiated 3T3-L1 cells were starved with serum-free DMEM containing 0.2% BSA (cat. no. A9647, Sigma-Aldrich). […] Uptake of 2DG was terminated by rapidly removing medium and washing with ice-cold PBS three times. Cells were lysed with 0.1% SDS, and the radioactivity was measured using a liquid scintillation counter. Insulin-mediated glucose uptake was calculated by subtracting insulin-treated glucose uptake with basal glucose uptake.

mPPARγ-downstream genes = assay: RT-qPCR of Glut4 and other mPPARγ-downstream genes in differentiated 3T3-L1 adipocytes
Procedure: The cell lines, which were tested for mycoplasma contamination and authenticated, were purchased from the Bioresource Collection and Research Center, Taiwan. All cells were cultured at 37 °C, 5% CO2 in a humidified incubator. HEK293T cells were maintained in DMEM (cat. no. SH30003.02, HyClone) supplemented with 10% fetal bovine serum (FBS) (cat. no. 04-001-1A, Biological Industries) and 1% antibiotic/antimycotic solution (cat. no. SV30079.01, HyClone). 3T3-L1 preadipocytes were maintained at ~70% confluence in DMEM with 10% calf serum (cat. no. 16170078, Gibco) and 1% antibiotic/antimycotic solution. For adipocyte differentiation, confluent 3T3-L1 cells (defined as day 0) were exposed to an induction medium containing 10% FBS, 1 μM dexamethasone (cat. no. D4902, Sigma-Aldrich), and 1 μg/ml insulin (Humulin R, Eli Lilly) in DMEM with or without 0.5 mM isobutyl-methylxanthine (cat. no. sc-201188A, Santa Cruz Biotechnology) as indicated. After two days, the medium was replaced with DMEM containing 10% FBS and 1 μg/ml insulin and was replenished every two days until assay.
A total of 1 × 10^5 3T3-L1 preadipocytes were seeded in 6-well plates and differentiated for six days. The 3T3-L1 adipocytes were then harvested in 1 ml of REzol C&T (cat. no. PT-KP200CT, Protech), and total RNA was extracted according to the manufacturer’s instructions with slight modifications. Briefly, 200 μl of chloroform were added to 1 ml of sample in REzol, and samples were vigorously mixed by shaking for 30 s, followed by incubation at room temperature for 5 min. Then, samples were centrifuged at 12,000 × g for 15 min at 4 °C, and 400 μl of the upper aqueous phase were transferred to a new 1.5-ml tube. An equal volume of isopropanol was added. Samples were inverted several times for mixing and then centrifuged at 12,000 × g for 10 min at 4 °C. The RNA precipitate, which formed a pellet at the bottom of the 1.5-ml tube, was washed three times with 75% ethanol and air-dried for 15 min. Pellets were dissolved in RNase-free water. The concentration of RNA was measured using Nanodrop. cDNA was synthesized using a reverse transcription kit (cat. no. K1622, Thermo Scientific) using the oligo(dT)18 primers. RT-qPCR was performed in a 10-μl reaction with 50 ng cDNA and 0.2 μM primer using SYBR green reagent (cat. no. 11203ES08, YEASEN). Mouse peptidylprolyl isomerase A (Ppia) mRNA was used as the internal control. RT-qPCR reactions were performed using ABI 7900HT FAST (Applied Biosystems) and Sequence Detection Systems (SDS v2.3, Applied Biosystems). All qPCR reactions were run in duplicates. The primers used are listed in Appendix Table S3.

[2] = system: PPARγ-null 3T3-L1 clones rescued with wild-type mPPARγ; assay: Insulin-stimulated glucose uptake in PPARγ-null 3T3-L1 clones rescued with wild-type mPPARγ; details: for insulin-stimulated glucose uptake, Fig 1P left panel replicates: rescued with wild-type mPPARγ
Procedure: as §1, §2, §3

3T3-L1 adipocytes = assay: Intracellular 15-keto-PGE2 content of 3T3-L1 cells (LC-MS/MS)
Procedure: The lysate was centrifuged at 300 × g for 5 min to remove cellular debris. The supernatant was transferred to a new tube. The C18 SPE cartridge was sequentially activated with 2 mL methanol and 2 mL ddH2O. The lower-layer sample was transferred to the C18 SPE cartridge. Once the lysate passed the cartridge, the SPE cartridge was washed with 2 mL 15% methanol and 5 mL ddH2O. The sample was then eluted with 5 mL HPLC-degree methanol and aliquoted into new 2-mL tubes. The elute was air-dried using a SpeedVac system and stored at −80 °C. The dried samples were reconstituted with 60 μL methanol before analysis.

Structure (SMILES): CCCCCC(=O)CC[C@H]1[C@H](O)CC(=O)[C@@H]1C/C=C\CCCC(=O)O [13,14-dihydro-15-keto-PGE2]
- insulin-stimulated glucose uptake, Fig 1P right panel replicates ([1]; 1314-dihydro-15kPGE2 5): 1.243 and 2.598 and 0.703
- Adipoq RT-qPCR, Fig 1I replicates (mPPARγ-downstream genes; 13,14dh-15kPGE2 10μM): 1.319 and 1.153 and 1.286
- Cepba RT-qPCR, Fig 1H replicates (mPPARγ-downstream genes; 13,14dh-15kPGE2 10μM): 1.374 and 0.7769 and 0.716
- Acs RT-qPCR, Fig 1G replicates (mPPARγ-downstream genes; 13,14dh-15kPGE2 10): 1.301 and 1.081 and 1.404
- Cd36 RT-qPCR, Fig 1F replicates (mPPARγ-downstream genes; 13,14dh-15kPGE2 10): 1.404 and 1.223 and 0.9692
- Glut4 RT-qPCR, Fig 1C replicates (mPPARγ-downstream genes; 13,14dh-15kPGE2 10): 1.898 and 2.106 and 1.673
- Irs2 RT-qPCR, Fig 1D replicates (mPPARγ-downstream genes; 13,14dh-15kPGE2 10): 0.9456 and 0.6593 and 0.5678
- Sorbs1 RT-qPCR, Fig 1E replicates (mPPARγ-downstream genes; 13,14dh-15kPGE2 10): 1.1258 and 0.882 and 0.8066
- insulin-stimulated glucose uptake, Fig 1P left panel replicates ([2]; 1314-dihydro-15kPGE2 5): 0.5765 and 0.8817 and 0.585 and 1.089

Structure (SMILES): Cc1[nH]c2nc(C(C)N3CCN(c4ccccc4)CC3)nn2c(=O)c1Cc1ccc(F)cc1 (centres unmarked) [BPRPT0245]
- intracellular 15-keto-PGE2 concentrations (3T3-L1 adipocytes; differentiated 3T3-L1 adipocytes treated with BPRPT0245): increased intracellular 15-keto-PGE2 concentrations in a dose-dependent manner

Structure (SMILES): CCCCCC(=O)/C=C/[C@H]1[C@H](O)CC(=O)[C@@H]1C/C=C\CCCC(=O)O [15-keto-PGE2, 15-keto-prostaglandin E2]
- insulin-stimulated glucose uptake, Fig 1P right panel replicates ([1]; 15kPGE2 1): 0.9792 and 1.801 and 3.6878 and 1.466
- insulin-stimulated glucose uptake, Fig 1P right panel replicates ([1]; 15kPGE2 5): 0.4664 and 1.615 and 2.026 and 0.6338
- insulin-stimulated glucose uptake, Fig 1P right panel replicates ([1]; 15kPGE2 10): 0.2762 and 1.684 and 2.97 and 1.874
- insulin-stimulated glucose uptake, PPARγ-null clone rescued with mutant mPPARγ (C313A) ([1]; clone #1296): not when rescued with mutant mPPARγ (C313A)
- Expression of Glut4 and other PPARγ-downstream genes (Irs2, Sorbs1, Cd36, Acs, Cebpa, Adipq) (mPPARγ-downstream genes; 3T3-L1 adipocytes): significantly increased
- Adipoq RT-qPCR, Fig 1I replicates (mPPARγ-downstream genes; 15kPGE2 1μM): 1.0415 and 1.163 and 1.453
- Cepba RT-qPCR, Fig 1H replicates (mPPARγ-downstream genes; 15kPGE2 1μM): 1.584 and 1.855 and 1.4452
- Adipoq RT-qPCR, Fig 1I replicates (mPPARγ-downstream genes; 15kPGE2 5μM): 2.354 and 2.11 and 2.081
- Cepba RT-qPCR, Fig 1H replicates (mPPARγ-downstream genes; 15kPGE2 5μM): 1.743 and 1.998 and 2.055
- Adipoq RT-qPCR, Fig 1I replicates (mPPARγ-downstream genes; 15kPGE2 10μM): 2.022 and 2.345 and 2.444
- Cepba RT-qPCR, Fig 1H replicates (mPPARγ-downstream genes; 15kPGE2 10μM): 2.675 and 2.195 and 2.109
- Acs RT-qPCR, Fig 1G replicates (mPPARγ-downstream genes; 15kPGE2 1): 1.074 and 1.165 and 0.8587
- Cd36 RT-qPCR, Fig 1F replicates (mPPARγ-downstream genes; 15kPGE2 1): 1.042 and 1.096 and 0.9399
- Glut4 RT-qPCR, Fig 1C replicates (mPPARγ-downstream genes; 15kPGE2 1): 1.309 and 1.263 and 1.257
- Irs2 RT-qPCR, Fig 1D replicates (mPPARγ-downstream genes; 15kPGE2 1): 1.164 and 1.43 and 1.116
- Sorbs1 RT-qPCR, Fig 1E replicates (mPPARγ-downstream genes; 15kPGE2 1): 1.214 and 1.379 and 1.0658
- Acs RT-qPCR, Fig 1G replicates (mPPARγ-downstream genes; 15kPGE2 5): 1.251 and 1.575 and 1.53
- Cd36 RT-qPCR, Fig 1F replicates (mPPARγ-downstream genes; 15kPGE2 5): 1.448 and 1.619 and 1.287
- Glut4 RT-qPCR, Fig 1C replicates (mPPARγ-downstream genes; 15kPGE2 5): 2.797 and 2.997 and 3.11
- Irs2 RT-qPCR, Fig 1D replicates (mPPARγ-downstream genes; 15kPGE2 5): 1.3621 and 1.275 and 1.386
- Sorbs1 RT-qPCR, Fig 1E replicates (mPPARγ-downstream genes; 15kPGE2 5): 1.2593 and 1.694 and 1.702
- Acs RT-qPCR, Fig 1G replicates (mPPARγ-downstream genes; 15kPGE2 10): 2.4974 and 2.133 and 2.44
- Cd36 RT-qPCR, Fig 1F replicates (mPPARγ-downstream genes; 15kPGE2 10): 2.006 and 2.309 and 1.915
- Glut4 RT-qPCR, Fig 1C replicates (mPPARγ-downstream genes; 15kPGE2 10): 7.333 and 8.598 and 7.543
- Irs2 RT-qPCR, Fig 1D replicates (mPPARγ-downstream genes; 15kPGE2 10): 2.078 and 2.094 and 1.997
- Sorbs1 RT-qPCR, Fig 1E replicates (mPPARγ-downstream genes; 15kPGE2 10): 2.379 and 1.942 and 1.911
- increase of intracellular 15-keto-PGE2 levels (3T3-L1 adipocytes; exogenously added 15-keto-PGE2 10–20 μM, 3T3-L1 adipocytes): 1.25 to 1.78 fold
- insulin-stimulated glucose uptake, Fig 1P left panel replicates ([2]; 15kPGE2 1): 0.8065 and 0.6857 and 0.06677 and 0.8595
- insulin-stimulated glucose uptake, Fig 1P left panel replicates ([2]; 15kPGE2 5): 1.281 and 2.22 and 0.9527 and 1.646
- insulin-stimulated glucose uptake, Fig 1P left panel replicates ([2]; 15kPGE2 10): 2.206 and 2.06 and 1.8139 and 2.125
- insulin-stimulated glucose uptake, PPARγ-null clone rescued with wild-type mPPARγ ([2]; clone #1296): enhanced insulin-stimulated glucose uptake in clone # 1296 when rescued with wild-type mPPARγ
